Test results: patent US10759766B2, “Certain chemical entities, compositions, and methods” (NeuPharma, Inc., priority 2011, dated 2020)

What was measured:
BRAF = BRAF (Homo sapiens (Human), UniProt P15056); assay: Z′-LYTE kinase inhibition assay (Invitrogen), BRAF; format: biochemical; settings: 1 μM compound, Z′-LYTE method; read-out: % inhibition at 1 μM against BRAF
BRAF V600E = BRAF V600E (Homo sapiens (Human), UniProt P15056, V600E); assay: Z′-LYTE kinase inhibition assay (Invitrogen), BRAF V600E; format: biochemical; settings: Z′-LYTE method; for inhibition at 1 µM: 1 μM compound, read-out: % inhibition at 1 μM against BRAF V600E
Method in brief: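 FRET-based Z′-LYTE peptide phosphorylation format in 50 mM HEPES pH 7.5, 0.01% BRIJ-35, 10 mM MgCl2, 1 mM EGTA with ATP. Kinase reaction 60 min at room temperature, then protease development step 60 min at room temperature before fluorescence read. IC50 from compound concentration versus percent inhibition.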

KDR (VEGFR2) = KDR (VEGFR2) (Homo sapiens (Human), UniProt P35968); assay: Z′-LYTE kinase inhibition assay (Invitrogen), KDR; format: biochemical; settings: Z′-LYTE method; for inhibition at 1 µM: 1 μM compound, read-out: % inhibition at 1 μM against KDR
Method in brief: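 Z′-LYTE FRET assay: 10 μL reactions with 0.5–11.7 ng KDR and 2 μM Tyr 01 peptide in 50 mM HEPES pH 7.5, 10 mM MgCl2, 1 mM EGTA, 0.01% BRIJ-35, 1 h at room temperature. Development Reagent B (1:256) added for 60 min, fluorescence read; IC50 from concentration–inhibition curves.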

A375 cells = assay: Inhibition of cancer cell growth, MTT assay, A375; format: cell-based; settings: Homo sapiens, A-375, 72 h exposure
Method in brief: (§1)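 IC50 derived from percent growth inhibition versus concentration, tested in triplicate. Growth inhibition came from MTT read at 570 nm after 72 h drug exposure, relative to viable cells at dosing. Cells (about 4000/well, RPMI 1640 + 10% FBS) adhered 24 h before treatment; final DMSO 1%.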

A549 cells = assay: Inhibition of cancer cell growth, MTT assay, A549; format: cell-based; settings: Homo sapiens, A549, 72 h exposure
Method in brief: as §1

BRAF V600E, sequence (P15056 whole entry V600E): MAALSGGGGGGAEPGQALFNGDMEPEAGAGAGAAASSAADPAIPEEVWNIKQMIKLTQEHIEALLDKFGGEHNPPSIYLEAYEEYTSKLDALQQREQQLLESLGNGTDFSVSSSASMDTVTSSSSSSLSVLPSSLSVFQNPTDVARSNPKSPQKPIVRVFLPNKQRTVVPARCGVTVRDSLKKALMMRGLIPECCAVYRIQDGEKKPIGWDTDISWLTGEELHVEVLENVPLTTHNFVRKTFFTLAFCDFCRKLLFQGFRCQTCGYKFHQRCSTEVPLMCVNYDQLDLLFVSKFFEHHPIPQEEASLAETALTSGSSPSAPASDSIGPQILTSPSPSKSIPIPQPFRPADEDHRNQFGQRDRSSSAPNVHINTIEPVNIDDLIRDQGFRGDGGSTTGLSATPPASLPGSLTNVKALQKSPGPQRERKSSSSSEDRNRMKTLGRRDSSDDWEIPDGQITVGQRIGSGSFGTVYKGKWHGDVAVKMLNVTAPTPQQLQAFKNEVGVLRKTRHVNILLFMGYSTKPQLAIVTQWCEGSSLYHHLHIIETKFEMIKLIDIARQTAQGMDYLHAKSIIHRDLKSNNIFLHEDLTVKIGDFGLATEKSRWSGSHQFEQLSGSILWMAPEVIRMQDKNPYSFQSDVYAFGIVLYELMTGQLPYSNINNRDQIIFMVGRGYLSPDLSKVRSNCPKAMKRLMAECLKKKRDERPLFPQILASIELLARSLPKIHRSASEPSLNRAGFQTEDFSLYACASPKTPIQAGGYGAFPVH
BRAF, sequence (P15056 whole entry): as the sequence (P15056 whole entry V600E) above, with E600V counted along it
KDR (VEGFR2), sequence (P35968 20-1356): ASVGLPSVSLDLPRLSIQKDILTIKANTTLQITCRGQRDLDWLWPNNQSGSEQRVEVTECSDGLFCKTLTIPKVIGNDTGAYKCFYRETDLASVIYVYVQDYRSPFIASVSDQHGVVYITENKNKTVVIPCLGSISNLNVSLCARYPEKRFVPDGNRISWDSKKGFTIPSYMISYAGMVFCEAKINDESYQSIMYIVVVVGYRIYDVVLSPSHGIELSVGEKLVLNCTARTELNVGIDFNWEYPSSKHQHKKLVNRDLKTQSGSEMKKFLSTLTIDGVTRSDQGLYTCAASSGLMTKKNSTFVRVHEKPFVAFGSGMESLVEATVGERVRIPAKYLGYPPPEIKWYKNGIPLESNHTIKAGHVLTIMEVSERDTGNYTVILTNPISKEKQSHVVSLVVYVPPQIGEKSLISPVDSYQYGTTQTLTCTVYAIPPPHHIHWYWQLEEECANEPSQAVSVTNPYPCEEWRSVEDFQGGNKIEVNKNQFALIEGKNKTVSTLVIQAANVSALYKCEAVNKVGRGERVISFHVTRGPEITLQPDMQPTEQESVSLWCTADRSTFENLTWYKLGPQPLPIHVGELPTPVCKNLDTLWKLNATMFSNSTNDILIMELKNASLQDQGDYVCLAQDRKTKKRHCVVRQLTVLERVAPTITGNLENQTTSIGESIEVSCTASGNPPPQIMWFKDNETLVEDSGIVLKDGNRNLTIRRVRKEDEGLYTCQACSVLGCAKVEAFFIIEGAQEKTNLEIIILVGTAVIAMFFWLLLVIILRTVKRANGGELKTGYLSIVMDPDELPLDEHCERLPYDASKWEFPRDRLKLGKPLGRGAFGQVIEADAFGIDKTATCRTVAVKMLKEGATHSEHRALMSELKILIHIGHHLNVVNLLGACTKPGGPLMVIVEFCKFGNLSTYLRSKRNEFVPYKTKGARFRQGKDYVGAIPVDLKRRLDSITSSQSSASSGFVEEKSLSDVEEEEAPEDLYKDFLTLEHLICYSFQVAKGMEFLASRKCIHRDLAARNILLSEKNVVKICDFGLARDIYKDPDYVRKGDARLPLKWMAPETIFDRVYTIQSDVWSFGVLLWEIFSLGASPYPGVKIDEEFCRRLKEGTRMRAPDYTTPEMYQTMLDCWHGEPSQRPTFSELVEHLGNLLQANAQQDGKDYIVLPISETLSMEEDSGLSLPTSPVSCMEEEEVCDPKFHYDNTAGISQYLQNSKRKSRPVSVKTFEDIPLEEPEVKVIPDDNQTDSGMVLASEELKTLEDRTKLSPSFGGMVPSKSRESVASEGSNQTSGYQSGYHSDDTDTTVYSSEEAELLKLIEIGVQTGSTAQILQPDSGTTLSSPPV

Compound | inhibition at 1 µM (BRAF) [%] | inhibition at 1 µM (BRAF V600E) [%] | IC50 (BRAF V600E; read-out: IC50 against BRAF V600E) [nM] | inhibition at 1 µM (KDR (VEGFR2)) [%] | IC50 (KDR (VEGFR2); read-out: IC50 against KDR) [nM] | IC50 (A375 cells) [nM] | IC50 (A549 cells) [nM]
O=C(Nc1cccc(C(=O)c2ccc3nccnc3c2)c1)Nc1cccc(C(F)(F)F)c1 [Compound C009, 1-(3-(quinoxaline-6-carbonyl)phenyl)-3-(3-(trifluoromethyl)phenyl)urea] | 70 to 89 | 70 to 89 | < 100 | > 89 | < 100 | > 5000 | 2000 to 5000
O=C(Nc1ccc(Cl)c(C(F)(F)F)c1)Nc1ccc(F)c(C(=O)c2ccc3nccnc3c2)c1Cl [Compound C008, 1-(4-chloro-3-(trifluoromethyl)phenyl)-3-(2-chloro-4-fluoro-3-(quinoxaline-6-carbonyl)phenyl)urea] | < 70 | < 70 |  | < 70 |  | > 5000 | 2000 to 5000
COc1cnc2ccc(C(=O)c3cc(NC(=O)Nc4ccc(F)c(F)c4)ccc3F)cc2n1 [Compound C082, 1-(3,4-difluorophenyl)-3-(4-fluoro-3-(3-methoxyquinoxaline-6-carbonyl)phenyl)urea] | < 70 | > 89 |  | 70 to 89 |  | 1000 to 5000 | 2000 to 5000

More lines, now with the values ahead:

inhibition at 1 µM (BRAF) [%] | inhibition at 1 µM (BRAF V600E) [%] | IC50 (BRAF V600E; read-out: IC50 against BRAF V600E) [nM] | inhibition at 1 µM (KDR (VEGFR2)) [%] | IC50 (KDR (VEGFR2); read-out: IC50 against KDR) [nM] | IC50 (A375 cells) [nM] | IC50 (A549 cells) [nM] | Compound
> 89 | > 89 |  | 70 to 89 |  | < 1000 | > 5000 | O=C(Nc1ccnc(C(F)(F)F)c1)Nc1ccc(F)c(C(=O)c2ccc3ncc(N4CCOCC4)nc3c2)c1 [Compound C090, 1-(4-fluoro-3-(3-morpholinoquinoxaline-6-carbonyl)phenyl)-3-(2-(trifluoromethyl)pyridin-4-yl)urea]
> 89 | > 89 |  | > 89 |  | < 1000 | < 2000 | O=C(Nc1cccc(C(F)(F)F)c1)Nc1ccc(F)c(C(=O)c2ccc3ncc(N4CCNCC4)nc3c2)c1 [Compound C085, 1-(4-fluoro-3-(3-(piperazin-1-yl)quinoxaline-6-carbonyl)phenyl)-3-(3-(trifluoromethyl)phenyl)urea]
< 70 | 70 to 89 |  | < 70 |  | 1000 to 5000 | < 2000 | O=C(Nc1cccc(C(=O)c2ccc3nccnc3c2)c1)c1cccc(F)c1 [Compound C105, 3-fluoro-N-(3-(quinoxaline-6-carbonyl)phenyl)benzamide]
